The record followed here is patent US9834518B2, “Compounds for inhibiting cell proliferation in EGFR-driven cancers” (ARIAD Pharmaceuticals, Inc., priority 2011, dated 2017).

Molecules are shown by their SMILES.

Experiment [1] has as its target BAF3 EGFR DEL T790M PURO POOL (Homo sapiens, UniProt P00533, DEL746-750/T790M, cells depend on it). In words: Cell proliferation (MTT), BAF3 EGFR DEL T790M. It is filed as cell-based. On the procedure:
(§1) We also assessed the antiproliferative activity of compounds of Formula (I) against BaF3 cells expressing the target EGFR mutations or control (i.e., cell lines expressing wildtype EGFR). Assays were conducted using MTT.

In experiment [2] the test system is BAF3 EGFR L858R-T790M PURO POOL. Nature of the experiment: Cell proliferation (MTT), BAF3 EGFR L858R-T790M. The following applies: Ba/F3 EGFR. The format is cell-based. On the procedure: as §1
The target of experiment [3] is EGFR bearing the L858R/T790M double mutation (Homo sapiens, UniProt P00533, L858R/T790M). Nature of the experiment: Kinase inhibition, EGFR L858R/T790M. The conditions noted are these: 10 μM ATP; 10 pt curves, 3 μM top concentration (singlicates). The format is biochemical. As to the method:
(§2) Kinase inhibitory activity of the compounds was measured against human EGFR (native sequence) and against EGFR bearing the L858R mution and the L858R/T790M double mutation (EGFR, L858R, and L858R/T790M, respectively in Table 1). Additional assays can be conducted with EGFR deletion mutants such as delE746-A750 with or without the additional T790M mutation. Assay conditions included 10 pt curves with 3 μM top concentration (singlicates) and 10 μM ATP.

The target of experiment [4] is EGFR bearing the L858R mution (Homo sapiens, UniProt P00533, L858R). In words: Kinase inhibition, EGFR L858R. The following applies: 10 μM ATP; 10 pt curves, 3 μM top concentration (singlicates). The format is biochemical. On the procedure:
as §2

The target of experiment [5] is human EGFR (native sequence) (Homo sapiens, UniProt P00533). In words: Kinase inhibition, human EGFR (native sequence). The format is biochemical. The following applies: 10 μM ATP; 10 pt curves, 3 μM top concentration (singlicates). As to the method: as §2
A further experiment relates to BAF3 PARENTAL
In words: Cell proliferation (MTT), BAF3 parental. The following applies: Mus musculus. The format is cell-based. On the procedure:
as §1

Sequence of BAF3 EGFR DEL T790M PURO POOL (P00533 with tags, fused parts or gaps DEL746-750/T790M): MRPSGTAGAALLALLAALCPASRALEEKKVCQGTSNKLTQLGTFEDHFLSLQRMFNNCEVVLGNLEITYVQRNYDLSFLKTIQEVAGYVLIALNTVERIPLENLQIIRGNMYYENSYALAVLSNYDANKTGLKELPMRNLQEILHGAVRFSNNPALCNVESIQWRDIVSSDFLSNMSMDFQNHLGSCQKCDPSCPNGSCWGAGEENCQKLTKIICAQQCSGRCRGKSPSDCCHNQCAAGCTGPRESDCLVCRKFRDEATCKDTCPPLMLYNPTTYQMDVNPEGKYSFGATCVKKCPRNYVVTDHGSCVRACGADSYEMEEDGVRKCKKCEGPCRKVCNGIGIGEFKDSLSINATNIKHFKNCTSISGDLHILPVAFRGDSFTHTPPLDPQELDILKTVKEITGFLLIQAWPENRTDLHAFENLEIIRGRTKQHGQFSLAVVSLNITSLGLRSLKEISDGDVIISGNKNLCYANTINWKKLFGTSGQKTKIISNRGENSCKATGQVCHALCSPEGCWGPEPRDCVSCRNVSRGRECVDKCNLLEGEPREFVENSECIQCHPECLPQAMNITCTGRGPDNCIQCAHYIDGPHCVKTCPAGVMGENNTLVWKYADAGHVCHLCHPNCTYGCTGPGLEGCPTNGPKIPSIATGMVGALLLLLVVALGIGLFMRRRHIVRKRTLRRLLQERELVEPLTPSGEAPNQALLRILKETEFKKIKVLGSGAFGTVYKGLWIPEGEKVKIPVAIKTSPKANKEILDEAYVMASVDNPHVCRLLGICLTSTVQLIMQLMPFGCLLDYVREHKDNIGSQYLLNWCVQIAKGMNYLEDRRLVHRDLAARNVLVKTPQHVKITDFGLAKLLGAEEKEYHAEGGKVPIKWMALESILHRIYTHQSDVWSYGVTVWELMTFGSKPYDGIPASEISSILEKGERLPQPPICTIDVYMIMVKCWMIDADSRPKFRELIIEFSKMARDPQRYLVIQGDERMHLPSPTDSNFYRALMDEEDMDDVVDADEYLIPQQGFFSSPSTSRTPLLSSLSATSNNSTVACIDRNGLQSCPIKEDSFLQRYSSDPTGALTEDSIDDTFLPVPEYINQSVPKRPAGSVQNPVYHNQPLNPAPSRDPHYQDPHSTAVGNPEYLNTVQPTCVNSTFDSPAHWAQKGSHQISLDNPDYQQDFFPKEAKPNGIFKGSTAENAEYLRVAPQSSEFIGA
Sequence of EGFR bearing the L858R mution (P00533 25-1210 L858R): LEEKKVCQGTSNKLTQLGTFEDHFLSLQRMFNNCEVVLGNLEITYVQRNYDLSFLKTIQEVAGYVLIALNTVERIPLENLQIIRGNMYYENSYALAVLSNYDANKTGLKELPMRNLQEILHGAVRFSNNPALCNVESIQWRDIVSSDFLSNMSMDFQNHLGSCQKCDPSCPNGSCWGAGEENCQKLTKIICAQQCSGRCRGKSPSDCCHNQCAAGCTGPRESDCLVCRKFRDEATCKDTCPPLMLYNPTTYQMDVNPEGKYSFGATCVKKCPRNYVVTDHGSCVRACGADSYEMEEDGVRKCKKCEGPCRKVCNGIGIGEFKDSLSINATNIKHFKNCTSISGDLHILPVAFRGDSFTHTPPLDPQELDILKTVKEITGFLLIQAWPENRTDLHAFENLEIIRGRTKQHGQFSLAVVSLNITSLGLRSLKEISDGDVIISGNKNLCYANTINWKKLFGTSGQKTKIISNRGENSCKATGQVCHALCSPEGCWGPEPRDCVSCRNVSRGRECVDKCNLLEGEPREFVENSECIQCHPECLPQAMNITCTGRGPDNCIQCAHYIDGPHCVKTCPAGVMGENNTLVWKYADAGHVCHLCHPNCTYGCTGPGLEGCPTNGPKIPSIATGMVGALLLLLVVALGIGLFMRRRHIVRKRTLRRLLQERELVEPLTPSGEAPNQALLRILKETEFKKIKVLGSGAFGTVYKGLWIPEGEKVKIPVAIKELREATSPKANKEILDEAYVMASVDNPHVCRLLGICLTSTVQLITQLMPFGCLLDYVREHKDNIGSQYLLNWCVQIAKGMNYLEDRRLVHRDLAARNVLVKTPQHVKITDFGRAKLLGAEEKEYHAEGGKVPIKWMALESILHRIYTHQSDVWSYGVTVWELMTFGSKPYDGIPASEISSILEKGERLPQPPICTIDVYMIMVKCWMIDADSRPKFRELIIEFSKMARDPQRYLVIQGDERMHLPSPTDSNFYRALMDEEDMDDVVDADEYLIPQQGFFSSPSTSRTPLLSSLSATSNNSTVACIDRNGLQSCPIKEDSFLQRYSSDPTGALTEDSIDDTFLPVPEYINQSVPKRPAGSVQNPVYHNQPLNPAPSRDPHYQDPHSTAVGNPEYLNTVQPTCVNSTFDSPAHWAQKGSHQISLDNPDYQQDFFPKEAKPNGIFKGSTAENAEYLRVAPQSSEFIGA
Sequence of human EGFR (native sequence) (P00533 25-1210): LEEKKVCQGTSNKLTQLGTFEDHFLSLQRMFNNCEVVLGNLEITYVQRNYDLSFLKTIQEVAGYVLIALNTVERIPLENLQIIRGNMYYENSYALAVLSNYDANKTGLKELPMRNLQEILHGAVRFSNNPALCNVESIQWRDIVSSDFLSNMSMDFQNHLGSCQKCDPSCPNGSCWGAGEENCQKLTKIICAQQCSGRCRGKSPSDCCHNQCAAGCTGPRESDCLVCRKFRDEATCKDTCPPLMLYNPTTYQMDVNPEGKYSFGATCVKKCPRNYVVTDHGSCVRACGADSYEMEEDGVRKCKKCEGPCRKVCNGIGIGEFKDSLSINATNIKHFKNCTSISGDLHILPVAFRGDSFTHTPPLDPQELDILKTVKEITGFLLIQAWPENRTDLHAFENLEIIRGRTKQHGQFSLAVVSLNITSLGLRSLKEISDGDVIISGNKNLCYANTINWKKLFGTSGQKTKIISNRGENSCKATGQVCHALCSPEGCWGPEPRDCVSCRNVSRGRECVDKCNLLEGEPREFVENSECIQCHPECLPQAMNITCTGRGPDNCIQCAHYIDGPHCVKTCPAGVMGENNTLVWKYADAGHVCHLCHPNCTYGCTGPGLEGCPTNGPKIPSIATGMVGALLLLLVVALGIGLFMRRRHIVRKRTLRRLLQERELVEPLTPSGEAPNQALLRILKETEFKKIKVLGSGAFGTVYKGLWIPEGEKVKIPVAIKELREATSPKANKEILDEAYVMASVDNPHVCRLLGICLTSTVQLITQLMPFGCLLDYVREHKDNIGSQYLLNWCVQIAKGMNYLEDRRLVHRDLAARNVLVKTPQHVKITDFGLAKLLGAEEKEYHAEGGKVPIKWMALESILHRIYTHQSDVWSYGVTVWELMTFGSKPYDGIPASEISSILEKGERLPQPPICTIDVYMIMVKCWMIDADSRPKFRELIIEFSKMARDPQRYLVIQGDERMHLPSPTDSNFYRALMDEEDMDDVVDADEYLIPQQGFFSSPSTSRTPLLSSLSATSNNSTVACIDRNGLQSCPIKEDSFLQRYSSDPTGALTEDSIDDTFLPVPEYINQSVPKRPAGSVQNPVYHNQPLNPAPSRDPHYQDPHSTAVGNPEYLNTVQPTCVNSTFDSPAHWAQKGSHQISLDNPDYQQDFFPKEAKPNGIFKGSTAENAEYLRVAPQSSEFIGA
Sequence of EGFR bearing the L858R/T790M double mutation (P00533 25-1210 T790M/L858R): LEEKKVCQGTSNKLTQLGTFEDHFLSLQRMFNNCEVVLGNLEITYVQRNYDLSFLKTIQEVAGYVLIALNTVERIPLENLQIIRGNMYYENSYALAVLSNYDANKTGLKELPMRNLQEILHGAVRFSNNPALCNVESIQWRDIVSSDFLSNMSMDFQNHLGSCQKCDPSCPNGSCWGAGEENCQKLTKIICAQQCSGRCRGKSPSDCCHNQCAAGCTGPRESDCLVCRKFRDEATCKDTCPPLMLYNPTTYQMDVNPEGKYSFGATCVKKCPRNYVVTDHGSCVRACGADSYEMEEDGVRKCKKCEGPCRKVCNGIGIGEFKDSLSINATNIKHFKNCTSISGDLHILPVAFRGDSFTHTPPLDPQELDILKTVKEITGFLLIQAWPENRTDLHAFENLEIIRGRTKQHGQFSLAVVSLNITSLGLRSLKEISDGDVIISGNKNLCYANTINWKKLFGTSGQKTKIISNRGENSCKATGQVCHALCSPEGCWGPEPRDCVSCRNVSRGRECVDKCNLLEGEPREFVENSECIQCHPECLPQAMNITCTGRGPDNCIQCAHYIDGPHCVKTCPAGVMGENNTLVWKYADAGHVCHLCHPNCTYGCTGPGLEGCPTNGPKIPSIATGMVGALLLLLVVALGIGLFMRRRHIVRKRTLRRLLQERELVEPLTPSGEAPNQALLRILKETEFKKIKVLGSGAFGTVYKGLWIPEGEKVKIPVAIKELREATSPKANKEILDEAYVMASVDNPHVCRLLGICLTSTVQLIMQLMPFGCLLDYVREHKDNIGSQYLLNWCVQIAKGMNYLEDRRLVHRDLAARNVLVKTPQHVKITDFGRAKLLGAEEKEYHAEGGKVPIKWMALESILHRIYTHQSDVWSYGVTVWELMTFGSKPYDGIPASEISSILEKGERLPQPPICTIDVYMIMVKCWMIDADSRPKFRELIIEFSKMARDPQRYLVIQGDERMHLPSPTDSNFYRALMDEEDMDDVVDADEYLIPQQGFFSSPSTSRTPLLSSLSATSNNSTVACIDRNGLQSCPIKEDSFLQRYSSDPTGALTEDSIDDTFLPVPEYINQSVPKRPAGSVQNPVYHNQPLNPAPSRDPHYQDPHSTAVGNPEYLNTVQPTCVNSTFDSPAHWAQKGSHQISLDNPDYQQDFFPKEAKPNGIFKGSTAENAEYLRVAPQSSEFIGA

With `C=CC(=O)Nc1cc(Nc2ncc(Cl)c(Nc3ccccc3P(C)(C)=O)n2)c(OC)cc1N(C)CCCN(C)C` [Example 34, N-(5-((5-chloro-4-((2-(dimethylphosphoryl)phenyl)amino)pyrimidin-2-yl)amino)-2-((3-(dimethylamino)propyl)(methyl)amino)-4-methoxyphenyl)acrylamide], the half-maximal inhibitory concentration (IC50) is less than 51 nM in experiment [1]; 101 to 250 nM in experiment [2]; 51 to 100 nM in experiment [3]; 101 to 250 nM in experiment [4]; not below 250 nM in experiment [5]; not below 250 nM with BAF3 PARENTAL.
As to `C=CC(=O)Nc1ccc(OC)c(Nc2ncc(Cl)c(Nc3cccc(F)c3P(C)(C)=O)n2)c1` [Example 53, N-(3-((5-chloro-4-((2-(dimethylphosphoryl)-3-fluorophenyl)amino)pyrimidin-2-yl)amino)-4-methoxyphenyl)acrylamide], the IC50 in experiment [1] was less than 51 nM; in experiment [2], less than 51 nM; in experiment [3] it was less than 51 nM; in experiment [4] it was less than 51 nM; in experiment [5] it was 51 to 100 nM; with BAF3 PARENTAL, not below 250 nM.
Turning to `C=CC(=O)Nc1cc(Nc2ncc(Cl)c(Nc3ccccc3P(C)(C)=O)n2)c(OC)cc1OCCOC` [Example 25, N-(5-((5-chloro-4-((2-(dimethylphosphoryl)phenyl)amino)pyrimidin-2-yl)amino)-4-methoxy-2-(2-methoxyethoxy)phenyl)acrylamide], the IC50 in experiment [1] was less than 51 nM; in experiment [2], 51 to 100 nM; in experiment [3] it was less than 51 nM; in experiment [4], less than 51 nM; in experiment [5], not below 250 nM; in the experiment with BAF3 PARENTAL it was not below 250 nM.
Turning to `C=CC(=O)Nc1cc(Nc2ncc(Cl)c(Nc3ccccc3P(C)(C)=O)n2)c(OC)cc1OC` [Example 20, N-(5-((5-chloro-4-((2-(dimethylphosphoryl)phenyl)amino)pyrimidin-2-yl)amino)-2,4-dimethoxyphenyl)acrylamide], the IC50 was less than 51 nM in experiment [1]; 101 to 250 nM in experiment [2]; less than 51 nM in experiment [3]; less than 51 nM in experiment [4]; not below 250 nM in experiment [5]; not below 250 nM in the experiment on BAF3 PARENTAL.
For the compound `COc1ccc(NC(=O)/C=C/CN2CCN(C)CC2)cc1Nc1ncc(Cl)c(Nc2ccccc2P(C)(C)=O)n1` [Example 4, (E)-N-(3-((5-chloro-4-((2-(dimethylphosphoryl)phenyl)amino)pyrimidin-2-yl)amino)-4-methoxyphenyl)-4-(4-methylpiperazin-1-yl)but-2-enamide], the IC50 is not below 250 nM in experiment [1]; 101 to 250 nM in experiment [3]; less than 51 nM in experiment [4]; not below 250 nM in experiment [5]; not below 250 nM in the experiment on BAF3 PARENTAL.
As to `C=CC(=O)Nc1cc(Nc2ncc(Cl)c(Nc3ccccc3P(C)(C)=O)n2)c(OC)cc1O[C@@H](COC)CN(CC)CC` (stereo in doubt) [Example 29, rac-(R)—N-(5-((5-chloro-4-((2-(dimethylphosphoryl)phenyl)amino)pyrimidin-2-yl)amino)-2-((1-(diethylamino)-3-methoxypropan-2-yl)oxy)-4-methoxyphenyl)acrylamide], the IC50 is less than 51 nM in experiment [1]; less than 51 nM in experiment [2]; less than 51 nM in experiment [3]; less than 51 nM in experiment [4]; less than 51 nM in experiment [5]; not below 250 nM with BAF3 PARENTAL.
For `C=CC(=O)Nc1cccc(Oc2nc(Nc3ccc(P(C)(C)=O)cc3OC)ncc2Cl)c1` [Example 9, N-(3-((5-chloro-2-((4-(dimethylphosphoryl)-2-methoxyphenyl)amino)pyrimidin-4-yl)oxy)phenyl)acrylamide], the IC50 in experiment [1] was 51 to 100 nM; in experiment [2], 51 to 100 nM; in experiment [3], less than 51 nM; in experiment [4] it was less than 51 nM; in experiment [5] it was 101 to 250 nM; with BAF3 PARENTAL, not below 250 nM.
With `COc1ccc(NC(=O)/C=C/CN(C)C)cc1Nc1ncc(Cl)c(Nc2ccccc2P(C)(C)=O)n1` [Example 2, (E)-N-(3-((5-chloro-4-((2-(dimethylphosphoryl)phenyl)amino)pyrimidin-2-yl)amino)-4-methoxyphenyl)-4-(dimethylamino)but-2-enamide], the IC50 in experiment [1] is less than 51 nM; in experiment [2] it was 51 to 100 nM; in experiment [3], less than 51 nM; in experiment [4], less than 51 nM; in experiment [5] it was 101 to 250 nM; with BAF3 PARENTAL it was not below 250 nM.
On to `C=CC(=O)N[C@H]1CCC[C@@H](Nc2ncc(Cl)c(Nc3ccccc3P(C)(C)=O)n2)C1` (stereo in doubt) [Example 43, N-(3-((5-chloro-4-((2-(dimethylphosphoryl)phenyl)amino)pyrimidin-2-yl)amino)cyclohexyl)acrylamide], for which the IC50 (in experiment [1]; in experiment [3]; in experiment [4]; in experiment [5]; in the experiment with BAF3 PARENTAL) was not below 250 nM each time.
Turning to `C=CC(=O)N[C@@H]1CCC[C@@H](Nc2ncc(Cl)c(Nc3ccccc3P(C)(C)=O)n2)C1` (racemic) [Example 42, rac-N-((1R,3R)-3-((5-chloro-4-((2-(dimethylphosphoryl)phenyl)amino)pyrimidin-2-yl)amino)cyclohexyl)acrylamide], the IC50 (in experiment [1]; in experiment [3]; in experiment [4]; in experiment [5]; in the experiment with BAF3 PARENTAL) was not below 250 nM throughout.
Regarding `C=CC(=O)Nc1ccc(Nc2ncc(Cl)c(Nc3ccccc3P(C)(C)=O)n2)c(OC)c1` [Example 45, N-(4-((5-chloro-4-((2-(dimethylphosphoryl)phenyl)amino)pyrimidin-2-yl)amino)-3-methoxyphenyl)acrylamide], the IC50 was not below 250 nM in experiment [1]; not below 250 nM in experiment [3]; 101 to 250 nM in experiment [4]; not below 250 nM in experiment [5]; not below 250 nM with BAF3 PARENTAL.
As for `C#CC(=O)Nc1ccc(OC)c(Nc2ncc(Cl)c(Nc3ccccc3P(C)(C)=O)n2)c1` [Example 6a, N-(3-((5-chloro-4-((2-(dimethylphosphoryl)phenyl)amino)pyrimidin-2-yl)amino)-4-methoxyphenyl)propiolamide], the IC50 was not below 250 nM in experiment [1]; less than 51 nM in experiment [3]; less than 51 nM in experiment [4]; less than 51 nM in experiment [5]; not below 250 nM in the experiment on BAF3 PARENTAL.
As to `C/C=C/C(=O)Nc1ccc(OC)c(Nc2ncc(Cl)c(Nc3ccccc3P(C)(C)=O)n2)c1` [Example 5a, (E)-N-(3-((5-chloro-4-((2-(dimethylphosphoryl)phenyl)amino)pyrimidin-2-yl)amino)-4-methoxyphenyl)but-2-enamide], the IC50 (in experiment [1]; in experiment [3]; in experiment [4]; in the experiment on BAF3 PARENTAL) was not below 250 nM in each case.
For the compound `C=C(CNc1ccc(OC)c(Nc2ncc(Cl)c(Nc3ccccc3P(C)(C)=O)n2)c1)C(=O)OC` [Example 16, methyl 2-(((3-((5-chloro-4-((2-(dimethylphosphoryl)phenyl)amino)pyrimidin-2-yl)amino)-4-methoxyphenyl)amino)methyl)acrylate], the IC50 is 101 to 250 nM in experiment [3], less than 51 nM in experiment [4], not below 250 nM in experiment [5] and not below 250 nM with BAF3 PARENTAL.
With `COc1ccc(NC(=O)/C=C/CN2CCOCC2)cc1Nc1ncc(Cl)c(Nc2ccccc2P(C)(C)=O)n1` [Example 3, (E)-N-(3-((5-chloro-4-((2-(dimethylphosphoryl)phenyl)amino)pyrimidin-2-yl)amino)-4-methoxyphenyl)-4-morpholinobut-2-enamide], the half-maximal inhibitory concentration (IC50) is 51 to 100 nM in experiment [3], less than 51 nM in experiment [4], not below 250 nM in experiment [5] and not below 250 nM in the experiment with BAF3 PARENTAL.
`C=CS(=O)(=O)Nc1ccc(OC)c(Nc2ncc(Cl)c(Nc3ccccc3P(C)(C)=O)n2)c1` [Example 7, N-(3-((5-chloro-4-((2-(dimethylphosphoryl)phenyl)amino)pyrimidin-2-yl)amino)-4-methoxyphenyl)ethenesulfonamide]: the IC50 is less than 51 nM in experiment [3], less than 51 nM in experiment [4], less than 51 nM in experiment [5] and not below 250 nM in the experiment with BAF3 PARENTAL.
For `COc1ccc(NC(=O)C=C(C)C)cc1Nc1ncc(Cl)c(Nc2ccccc2P(C)(C)=O)n1` [Example 5b, N-(3-((5-chloro-4-((2-(dimethylphosphoryl)phenyl)amino)pyrimidin-2-yl)amino)-4-methoxyphenyl)-3-methylbut-2-enamide], the IC50 (in experiment [1]; in experiment [3]; in experiment [4]; with BAF3 PARENTAL) was not below 250 nM throughout.
For `C=CC(=O)Nc1ccc(OC)c(Nc2nc(Nc3ccccc3P(C)(C)=O)c3c(F)c[nH]c3n2)c1` [Example 23, N-(3-((4-((2-(dimethylphosphoryl)phenyl)amino)-5-fluoro-7H-pyrrolo[2,3-d]pyrimidin-2-yl)amino)-4-methoxyphenyl)acrylamide], the concentration for half-maximal inhibition (IC50) in experiment [1] was not below 250 nM; in experiment [3] it was 101 to 250 nM; in experiment [4], not below 250 nM; in experiment [5], not below 250 nM; with BAF3 PARENTAL, not below 250 nM.
